Measured values from ChEMBL document CHEMBL1201862, “PubChem BioAssay data set” (2004).
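Step 1: Grow cells in 96-well plates. Step 2: Expose to compound for 48 hours at 5 concentrations. Step 3: Interpolate endpoints linearly; if unreached, use highest concentration. GI50 = concentration required for 50% inhibition of growth.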 Activity calls are given as the source filed them. No stated cut-off is given here; in the data, active = GI50 up to about 1.1 µM and inactive = higher.

Tests used:
Assay in all cases: NCI-60 cell line screen, 48 h
Malme-3M = test system: Malme-3M
UO-31 = test system: UO-31
HL-60 = test system: HL-60
COLO 205 = test system: COLO 205
OVCAR-5 = test system: OVCAR-5
SNB-19 = test system: SNB-19
UACC-62 = test system: UACC-62
NCI-H460 = test system: NCI-H460
OVCAR-4 = test system: OVCAR-4
MOLT-4 = test system: MOLT-4
SF-295 = test system: SF-295
RPMI-8226 = test system: RPMI-8226
A549 = test system: A549
SF-268 = test system: SF-268
HCT-116 = test system: HCT-116
SN12C = test system: SN12C
KM12 = test system: KM12
HT-29 = test system: HT-29
K562 = test system: K562
HOP-62 = test system: HOP-62

| SMILES | GI50 (Malme-3M) | GI50 (UO-31) | GI50 (HL-60) | GI50 (COLO 205) | GI50 (OVCAR-5) | GI50 (SNB-19) | GI50 (UACC-62) | GI50 (NCI-H460) | GI50 (OVCAR-4) | GI50 (MOLT-4) | GI50 (SF-295) | GI50 (RPMI-8226) | GI50 (A549) | GI50 (SF-268) | GI50 (HCT-116) | GI50 (SN12C) | GI50 (KM12) | GI50 (HT-29) | GI50 (K562) | GI50 (HOP-62) |
| --- | --- | --- | --- | --- | --- | --- | --- | --- | --- | --- | --- | --- | --- | --- | --- | --- | --- | --- | --- | --- |
| COc1ccc2[nH]c3c(C)c4ccncc4c(C)c3c2c1 | 1.44 µM (inactive) | 1.42 µM (inactive) | 0.532 µM (active) | 0.19 µM (active) | 1.42 µM (inactive) | 0.532 µM (active) | 0.731 µM (active) | 0.0292 µM (active) | 0.258 µM (active) | 0.0635 µM (active) | 0.521 µM (active) | 0.289 µM (active) | 0.264 µM (active) | 0.429 µM (active) | 0.0425 µM (active) | 0.177 µM (active) | 0.152 µM (active) | 0.212 µM (active) | 0.196 µM (active) | 0.946 µM (active) |
| COC1C(O)C(n2ncc3c(SC)nc(SC)nc32)OC1C(O)CO (centres undefined) | > 100 µM (inactive) | > 100 µM (inactive) | > 100 µM (inactive) | > 100 µM (inactive) | > 100 µM (inactive) | > 100 µM (inactive) | > 100 µM (inactive) | > 100 µM (inactive) | > 100 µM (inactive) | > 100 µM (inactive) | > 100 µM (inactive) | > 100 µM (inactive) | > 100 µM (inactive) | > 100 µM (inactive) | > 100 µM (inactive) | > 100 µM (inactive) | > 100 µM (inactive) | > 100 µM (inactive) | > 100 µM (inactive) | > 100 µM (inactive) |
| CC1=NN(C(=O)c2ccccc2O)C(=O)/C1=C/c1c(O)ccc2ccccc12 | 1.52 µM (inactive) | 0.968 µM (active) | 0.299 µM (active) | 2.9 µM (inactive) | 4.11 µM (inactive) | 3.26 µM (inactive) | 0.287 µM (active) | 0.676 µM (active) | 0.468 µM (active) | 1.8 µM (inactive) | 2.23 µM (inactive) | 1.46 µM (inactive) | 2.06 µM (inactive) | 0.723 µM (active) | 0.689 µM (active) | 1.22 µM (inactive) | 2.78 µM (inactive) | 10.2 µM (inactive) | 1.73 µM (inactive) | 0.944 µM (active) |
| Cc1ccc(C#CS(=O)(=O)C(F)(F)F)cc1 | > 100 µM (inactive) | > 100 µM (inactive) | > 31.6 µM (inactive) | > 100 µM (inactive) | > 100 µM (inactive) | > 100 µM (inactive) | > 100 µM (inactive) | > 100 µM (inactive) | > 100 µM (inactive) | > 100 µM (inactive) | > 31.6 µM (inactive) | > 100 µM (inactive) | > 100 µM (inactive) | > 100 µM (inactive) | > 100 µM (inactive) | > 100 µM (inactive) | > 100 µM (inactive) | > 100 µM (inactive) | > 100 µM (inactive) | > 100 µM (inactive) |
| CN(C)c1ccc(C2CC(=O)CC(c3ccc(N(C)C)cc3)C23C(=O)NC(=O)NC3=O)cc1 (centres undefined) | 8.73 µM (inactive) | > 25 µM (inactive) | > 25 µM (inactive) | > 25 µM (inactive) | > 25 µM (inactive) | 9.14 µM (inactive) | 19.5 µM (inactive) | > 25 µM (inactive) | > 25 µM (inactive) | 0.0025 µM (active) | 19.8 µM (inactive) | > 25 µM (inactive) |  | 19.5 µM (inactive) | > 25 µM (inactive) | > 25 µM (inactive) | > 25 µM (inactive) | > 25 µM (inactive) | 0.025 µM (active) | 18.2 µM (inactive) |
| N#Cc1c(NC(=S)NC(=O)c2ccccc2)nc2c(c1-c1ccccc1)CCCC2 | > 10 µM (inactive) | 88.7 µM (inactive) | > 100 µM (inactive) | > 100 µM (inactive) | > 100 µM (inactive) | > 100 µM (inactive) | > 100 µM (inactive) | > 100 µM (inactive) | 22.5 µM (inactive) | > 100 µM (inactive) | 34.9 µM (inactive) | > 100 µM (inactive) | > 100 µM (inactive) | 0.299 µM (active) | > 100 µM (inactive) | > 10 µM (inactive) | > 100 µM (inactive) | > 100 µM (inactive) | > 100 µM (inactive) | 45.3 µM (inactive) |
